In patent US20110027178A1, “IMAGING THE CENTRAL NERVOUS SYSTEM” (priority 2008, published 2011):

Molecular target: T1, P2X7 receptor (Homo sapiens, UniProt Q99572)
T1 construct: expressed in transfected cells; host or cells: HEK.293 cells, transient transfection
T1 sequence (Q99572 1-595): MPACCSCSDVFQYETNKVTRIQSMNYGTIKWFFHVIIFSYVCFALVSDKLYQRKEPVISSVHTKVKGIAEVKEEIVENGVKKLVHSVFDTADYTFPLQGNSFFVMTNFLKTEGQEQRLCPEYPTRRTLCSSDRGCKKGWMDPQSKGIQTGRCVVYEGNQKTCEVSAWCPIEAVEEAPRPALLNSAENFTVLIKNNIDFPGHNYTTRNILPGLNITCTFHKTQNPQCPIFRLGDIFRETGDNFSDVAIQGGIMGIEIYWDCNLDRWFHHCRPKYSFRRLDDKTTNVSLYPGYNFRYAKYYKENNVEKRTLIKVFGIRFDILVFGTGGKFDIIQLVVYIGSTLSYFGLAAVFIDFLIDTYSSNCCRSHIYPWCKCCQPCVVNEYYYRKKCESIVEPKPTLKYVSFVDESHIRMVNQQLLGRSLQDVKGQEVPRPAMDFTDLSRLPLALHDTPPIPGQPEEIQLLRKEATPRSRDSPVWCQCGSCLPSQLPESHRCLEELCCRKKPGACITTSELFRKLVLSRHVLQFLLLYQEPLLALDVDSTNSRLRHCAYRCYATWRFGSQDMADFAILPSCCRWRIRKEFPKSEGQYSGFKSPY
Assay: Pore-forming assay (Yo Pro-1 dye uptake), P2X7 receptor functional assay
Assay type: cell-based
Conditions: P2X7 transfected HEK.293 cells, Bz-ATP 30 μM, Yo Pro-1 1 μM, triplicate
From the text: Non-radioactive versions of the Imaging Agents illustrated in Table I were screened in a P2X7 receptor functional assay. This assay is described in Example 9 and is based upon the ability of the P2X7 receptor to form a non-selective pore in P2X7 transfected HEK.293 cells upon activation with an agonist, thereby allowing dye to permeate the cells. The non selective P2X channel antagonist used as a reference inhibitor for the evaluation of the non-radioactive compound of the invention was pyridoxal-phosphate-6-azophenyl-2′,4′-disulfonate (PPADS), and the results of the assay are provided in Table I above.
The assay method used was based on the ability of the DNA binding dye, Yo Pro-1 (quinolinium, 4[3-methyl-2(3H)-benzoxazolylidene) methyl]-1-[3-(trimethyl-ammonio) propyl]-[…]) to enter through the dilated or “large pore form” of the P2X7 receptor and to bind to intracellular DNA/RNA whereupon it increases fluorescence intensity. Yo Pro-1 was therefore used to quantify inhibition of P2X7 function. This assay was based on the methods published by Michel et al., (B.J. Pharmacol 1998; 125: 1194-1201).
Initially, HEK.293 cells were transiently transfected using LipofectamineTMLTX (Invitrogen) for 72 hrs with P2X7 cDNA. 48 hours prior to use the cells were seeded into poly-D-lysine coated 96-well black-walled, clear bottomed plates, at a density of 30,000 cells/well. Stock solutions of each test compound were prepared at a concentration of 40 mM in 100% DMSO
Following the 48 hour incubation the culture medium was removed from the transfected cells, the cells were washed once and placed in pre-warmed sucrose assay buffer (Sucrose: 280 mM, KCl: 5 mM, CaCl2: 0.5 mM, glucose: 10 mM, HEPES: 10 mM, N-methyl-D-glucamine: 10 mM; pH7.4). The test compounds were added to the plate at a concentration of 10 μM and 100 nM in triplicate and incubated at 37° C. for 30 minutes. The final DMSO concentration in the assay was 1%. After this time Yo Pro-1 dye and Bz-ATP solution was added at concentrations of 1 μM and 30 μM respectively for 60 minutes at 37° C. The fluorescence was then read at 485 nm excitation and 530 nm emission.
The non-selective P2X channel antagonist PPADS was used as a reference inhibitor in the assay. A dose-response to PPADS was performed on the assay plate using a starting concentration of 200 μM followed by a 1 in 6 serial dilution covering 200 μM to 0.4 nM. For each compound data set, a percentage inhibition value was calculated based on the three assay points generated.

% Inhibition (test compound 100 nM)	% Inhibition (test compound 10 μM)	SMILES
22.0%	72.0%	O=C1CSC(=O)N1C(CCc1ccncc1)COc1ccc(-c2cc([N+](=O)[O-])ccc2F)cc1 (stereo not drawn) [Non-radioactive Imaging Agent 2, 3-[1-(2′-Fluoro-5′-nitro-biphenyl-4-yloxymethyl)-3-pyridin-4-yl-propyl]-thiazolidine-2,4-dione]
10.0%	69.6%	[18F]c1ncccc1Cn1nnnc1-c1cccc(Cl)c1Cl [Non-radioactive Imaging Agent 5]
0.00%	62.0%	O=C(CC12CC3CC(CC(C3)C1)C2)Nc1cccc2nc(NCCNCCOCC[18F])ccc12 [Non-radioactive Imaging Agent 3]
